From PMC7601446, “Significant Decreased Expressions of CaN, VEGF, SLC39A6 and SFRP1 in MDA-MB-231 Xenograft Breast Tumor Mice Treated with Moringa oleifera Leaves and Seed Residue (MOLSr) Extracts” (Nutrients, 2020) come the findings set out here.

For data set [1], the system named is vascular endothelial cell growth factor (VEGF). The experiment in a line: Serum ELISA of VEGF in xenograft mice. Format: in vivo. To be noted: high-dose M1S9 or TAM 30 mg/kg vs non-treated xenograft mice. The procedure: (§1) Body weight and tumor volume were measured weekly up to two months. The tumor-growth-inhibition rate (I.R.) was calculated using the following formula: I.R. (%) = {[(Average tumor volume of the control − average tumor volume of the treated group)/Average tumor volume of the control] * 100%}. After two months, serum blood was collected for biochemical analysis. Subsequently, all organs (liver, kidney, spleen, heart and lung) and tumors were excised, weighted and calculated as relative organ weight (expressed as the percentage of organ weight to body weight). The tumors were snap-frozen in liquid nitrogen for gene expression analysis later.
(§2) Serum blood was subjected to biochemical analysis on calcineurin (CaN), estrogen (ES) and vascular endothelial cell growth factor (VEGF) proteins using ELISA kits (FineTest, Wuhan, China), following the manufacturer’s instructions. […] Eluted RNA was quantitated and purity-checked using UV-absorbance-based NanoDrop® (Thermo Scientific, Wilmington, NC, USA) and Agilent 2100 Bioanalyzer RNA 6000 Nano Chip (Agilent, Palo Alto, CA, USA), respectively. […] Threshold cycle (CT) of each gene was analyzed for ΔΔCT after normalization using housekeeping genes in the web-based RT^2 Profiler Data Analysis Software (https://www.qiagen.com/my/shop/genes-and-pathways/data-analysis-center-overview-page/).

Data set [2] concerns calcineurin (CaN). The experiment in a line: Serum ELISA of calcineurin in xenograft mice. The format is in vivo. To be noted: high-dose M1S9 or TAM 30 mg/kg vs non-treated xenograft mice. The procedure: as §1, §2
For orientation: In an ELISA, binding on a coated surface is turned into a signal by an enzyme label.

Data set [3] can be described thus: Body weight and relative organ weight in MDA-MB-231 xenograft mice. Format: in vivo, NOD/ShiJic-SCID mice. To be noted: up to eight weeks. How it is done:
Animal study was approved by the UiTM Committee on Animal Research and Ethics (Ethic approval number: UiTM CARE 278/2019 (05/04/2019)). All animal experiments were conducted in accordance with standard ethical guidelines. Six- to eight-week-old female SPF NOD/ShiJic-SCID mice were obtained from Nomura Siam International (Bangkok, Thailand). […] To evaluate the tumorigenesis in the animal model, the highly aggressive MDA-MB-231 cell lines were injected into SCID mice to induce the breast cancer model. MDA-MB-231 cell lines (ATCC® HTB-26TM) were grown in Leibovitz's medium (L15) (HyClone, Rd. Logan, UT, USA) with 10% fetal bovine serum (FBS) (Gibco, Gaithersburg, MD, USA) and 1% penicillin-streptomycin (Beyotime Biotechnology, Haimen, Jiangsu, China) in a humidified incubator at 37 °C without CO2. Mice were subcutaneously injected with 3 × 10^6/100 μL MDA-MB-231 cells into the right flank region in the SCID mice. […] Body weight and tumor volume were measured weekly up to two months. […] Subsequently, all organs (liver, kidney, spleen, heart and lung) and tumors were excised, weighted and calculated as relative organ weight (expressed as the percentage of organ weight to body weight). […]

Data set [4] has as its system MDA-MB-231 xenograft tumor. As to the kind of experiment: In vivo tumorigenicity study, MDA-MB-231 xenograft mice. More on the design: species or system NOD/ShiJic-SCID mice. The procedure:
Animal study was approved by the UiTM Committee on Animal Research and Ethics (Ethic approval number: UiTM CARE 278/2019 (05/04/2019)). All animal experiments were conducted in accordance with standard ethical guidelines. Six- to eight-week-old female SPF NOD/ShiJic-SCID mice were obtained from Nomura Siam International (Bangkok, Thailand). All mice were housed in the pathogen-free environment under controlled conditions (temperature 20–26 °C, humidity 40–70%, light/dark cycle 12 h/12 h) and received water and food ad libitium. To evaluate the tumorigenesis in the animal model, the highly aggressive MDA-MB-231 cell lines were injected into SCID mice to induce the breast cancer model. MDA-MB-231 cell lines (ATCC® HTB-26™) were grown in Leibovitz’s medium (L15) (HyClone, Rd. Logan, UT, USA) with 10% fetal bovine serum (FBS) (Gibco, Gaithersburg, MD, USA) and 1% penicillin-streptomycin (Beyotime Biotechnology, Haimen, Jiangsu, China) in a humidified incubator at 37 °C without CO2. Mice were subcutaneously injected with 3 × 10^6/100 μL MDA-MB-231 cells into the right flank region in the SCID mice.
as §1

In data set [5] the test system is 84 key human breast cancer genes in MDA-MB-231 xenograft tumor. As to the kind of experiment: Human Breast Cancer RT2 Profiler PCR array on excised tumor. Format: in vivo, mice. To be noted: TAM-treated vs non-treated, p < 0.05. How it is done: as §1
Serum blood was subjected to biochemical analysis on calcineurin (CaN), estrogen (ES) and vascular endothelial cell growth factor (VEGF) proteins using ELISA kits (FineTest, Wuhan, China), following the manufacturer’s instructions. The Human Breast Cancer RT^2 Profiler PCR array (Rotor-Gene® Format) (PAHS-131ZR, Qiagen® GmbH, Hilden, Germany) was used to profile the expression of 84 genes associated with key human breast cancer pathways. Briefly, total RNA was isolated from pulverized tumor tissues of non-treated (negative control), high-dose M1S9-treated mice and TAM-treated (positive control) using RNeasy® Lipid Tissue Mini kit (Qiagen® GmbH, Hilden, Germany). Three biological replicates were prepared from each group. Eluted RNA was quantitated and purity-checked using UV-absorbance-based NanoDrop® (Thermo Scientific, Wilmington, NC, USA) and Agilent 2100 Bioanalyzer RNA 6000 Nano Chip (Agilent, Palo Alto, CA, USA), respectively. A total of 1000 ng of RNA sample was converted to cDNA using RT^2 First Strand Kit (Qiagen® GmbH, Hilden, Germany) according to the manufacturer’s protocol. The cDNA was then mixed with RT^2 SYBR Green ROX FAST Mastermix and RNase-free water before dispensing into the array and then subjected to Rotor-Gene® Q real time PCR cycler (Qiagen® GmbH, Hilden, Germany) for analysis. Threshold cycle (CT) of each gene was analyzed for ΔΔCT after normalization using housekeeping genes in the web-based RT^2 Profiler Data Analysis Software (https://www.qiagen.com/my/shop/genes-and-pathways/data-analysis-center-overview-page/).

Data set [6] deals with estrogen (ES). The experiment in a line: Serum ELISA of estrogen in xenograft mice. As to conditions: TAM 30 mg/kg vs non-treated xenograft mice. The format is in vivo.
Data set [7] can be described thus: Ferric reducing antioxidant power (FRAP) assay. To be noted: mean ±2 standard deviation (n = 3). How it is done: Moringa mixtures were subjected to phytochemical analysis following methods described by Harborne (1998) and Kokate (2005), which are based on visual observation of color changes or the formation of precipitates. Quantitative analysis of total flavonoid content (TFC) and total phenolic content (TPC) of moringa mixtures were determined spectrophotometrically by the aluminum calorimetric method (quercetin as the reference standard) and Folin–Ciocalteu method (gallic acid as the reference standard) with minor modifications, respectively. […] These antioxidant assays were carried out according to Yang et al. (2011) with slight modifications. Detailed steps were described previously by Abdul Hisam et al. (2018). All the experiments were conducted in triplicate.

As for `CC/C(=C(\c1ccccc1)c1ccc(OCCN(C)C)cc1)c1ccccc1` [TAM, tamoxifen], the VEGF protein level entry in data set [1] is listed as “decreased significantly”. Further, the CaN protein level entry in data set [2] is on record as “decreased significantly”. In data set [3], the body weight changes result was “no significant difference”. The “tumor volume compared to the control mice” value in data set [4] (M1S9 all three doses, TAM 30 mg/kg, up to six weeks, p < 0.05) is given as “significant reduction”. Further, the “tumor growth inhibition (highest inhibition rate)” value in data set [4] (TAM 30 mg/kg subcutaneously, sixth week) is listed as “up to 80.5%”. In addition, the tumor growth inhibition in data set [4] (TAM 30 mg/kg subcutaneously, third week) is listed as 69.1%. Besides, in data set [5], the AR gene expression entry was “induced significantly”, the CTNNB1 gene expression result is recorded as “suppressed significantly”, the ESR1 gene expression entry is on record as “induced significantly” and the IL6 gene expression entry is “induced significantly”. For the same compound, in data set [5], the MYC gene expression result is reported as “induced significantly”, the NR3C1 gene expression result is recorded as “induced significantly” and the THBS1 gene expression result was “induced significantly”. For the same compound, the ES protein level result in data set [6] is reported as “decreased significantly”.

On to `O=C1O[C@H]([C@@H](O)CO)C(O)=C1O` [ascorbic acid], for which the FRAP in data set [7] is 172.41 ± 12.6 ^$ µg Trolox/mg.
